Test results from US5045566A, “Novel imidate insecticides” (ICI Americas Inc., priority 1989, dated 1991).

Key:
Type in all cases: in vivo
[1] = test system: Housefly [Musca domestica]; experiment: Housefly contact mortality in dishes (HF), 48 hours; details: μg of test compound per 25 female flies
Outline: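 Dose range started at 100 μg per 25 female flies and went downward. Insects (1-2 days old) contacted a dried acetone/peanut-oil deposit in dishes; LC50 values come from dosage-mortality curves at 48 h.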

[2] = test system: Black Bean Aphid [Aphis fabae (Scop.)]; experiment: Black bean aphid spray test on nasturtium (BBA), 48 hours; details: percent of test compound in sprayed solution
Outline: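 LC50, given as percent test compound in the sprayed liquid, was calculated from dosage-mortality curves using concentrations from 0.05% downward. Sprays in 50:50 acetone-water went to runoff on ~5 cm nasturtiums carrying 25-50 aphids of mixed ages, one day after infestation. Deaths were counted 48 h later under greenhouse conditions.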

[3] = test system: Tobacco Budworm [Heliothis virescens (Fabricius)] eggs; experiment: Tobacco budworm eggs (TBW-E); details: percent in solution; 2-day old eggs
Outline: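 LC50 values (percent test compound in the dip solution) were calculated from dosage-mortality curves. Egg patches, 2 days old, were dipped in acetone solutions at concentrations from 0.1% downward and held at 78° F on rearing medium until control larvae hatched and fed.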

[4] = test system: Cabbage Looper [Trichoplusia ni (Hubner)]; experiment: Cabbage looper leaf dip (CL), 3-5 days; details: percent in solution, second-instar larvae
Outline: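 Leaf dip, squash cotyledons, 50-50 acetone-water, top dose 0.1% and lower. 5 second-instar larvae/dish, moist filter paper, high-humidity chamber. Mortality at 3-5 d; LC50 (% in solution) from dosage-mortality curves.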

[5] = test system: Aster Leafhopper [Macrosteles fascifrens (Stal)]; experiment: Aster leafhopper on dipped oat seedlings (LH), 48 hours; details: percent in solution, adults/nymphs
Outline: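 Three ~10 cm oat seedlings per cup were dipped 2-3 seconds in 50-50 acetone-water compound solutions, dried, and caged with ten adult/nymph leafhoppers. Mortality was counted after 48 hours at concentrations from 0.05% downward. LC50, as percent compound in solution, came from dosage-mortality curves.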

[6] = test system: Maize weevil [Sitophilus zeamais (Motschulsky)]; experiment: Maize weevil on dipped corn seeds (MW), 48 hours; details: percent in solution, adult weevils
Outline: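 LC50, given as percent of compound in dipping solution, comes from dosage-mortality curves over concentrations descending from 0.01%. Four corn seeds soaked 2-3 s in 50:50 acetone:water solution were dried and held with 10 adult weevils, about 25° C, mortality read after 48 h.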

SMILES	LC50 HF [1] [µg]	LC50 BBA [2] [%]	LC50 TBW E (eggs) [3] [%]	LC50 CL [4] [%]	LC50 LH [5] [%]	LC50 MW [6] [%]
CC1(C)C(C(=Nc2ccc(F)c(Cl)c2)OCc2cccc(Oc3ccccc3)c2)C1(C)C [Compound 124]	17	> 0.05	> 0.1	0.01	> 0.05	> 0.01
CC(C)C(=Nc1cccc(Br)c1)OCc1cccc(Oc2ccccc2)c1 [Compound 128]	4.5	0.001	0.037	0.005	0.003	> 0.01
CC(C)C(=Nc1ccccc1Br)OCc1cccc(Oc2ccccc2)c1 [Compound 132]	65	0.0025	> 0.1	0.025	> 0.05	> 0.01
CSc1ccc(N=C(OCc2cccc(Oc3ccccc3)c2)C(C)C)cc1 [Compound 142]	15	0.001	0.1	0.005	> 0.05	> 0.01
COc1cccc(N=C(OCc2cccc(Oc3ccccc3)c2)C(C)C)c1 [Compound 143]	10	0.002	< 0.1	0.002	0.006	> 0.01
COC(=O)c1ccc(N=C(OCc2cccc(Oc3ccccc3)c2)C(C)C)cc1 [Compound 151]	38	0.006	> 0.1	0.009	> 0.05	> 0.01
CC(C)C(=Nc1ccc(C(C)(C)C)cc1)OCc1cccc(Oc2ccccc2)c1 [Compound 153]	> 100	0.003	0.1	0.004	0.0005	> 0.01
Cc1cccc(N=C(OCc2cccc(Oc3ccccc3)c2)C(C)C)c1 [Compound 155]	9	0.001	0.06	0.004	> 0.05	> 0.01
Cc1ccc(N=C(OCc2cccc(Oc3ccccc3)c2)C(C)C)cc1 [Compound 156]	10	0.001	0.05	0.004	> 0.05	> 0.01
COc1ccc(N=C(OCc2cccc(Oc3ccccc3)c2)C(C)C)cc1 [Compound 160]	7	0.003	0.09	0.005	0.05	> 0.01
CC(C)C(=Nc1ccc(C#N)cc1)OCc1cccc(Oc2ccccc2)c1 [Compound 172]	5	> 0.05	0.04	0.002	> 0.05	> 0.01
c1ccc(Oc2cccc(COC(=Nc3ccc4c(c3)OCO4)C3CC3)c2)cc1 [Compound 177]	13	0.01	> 0.1	0.002	> 0.05	0.01
CCC(=Nc1ccc2c(c1)OCO2)OCc1cccc(Oc2ccccc2)c1 [Compound 178, N-(3,4-Methylenedioxyphenyl)-O-(3-phenoxybenzyl)propionimidate]	6	0.05	> 0.1	0.004	> 0.05	> 0.01
CC(C)C(=Nc1ccc2c(c1)OCCO2)OCc1cccc(Oc2ccccc2)c1 [Compound 179]	13	0.003	> 0.1	0.004	0.005	> 0.01
CC(C)C(=Nc1ccc(-c2ccccc2)cc1)OCc1cccc(Oc2ccccc2)c1 [Compound 186]	> 100	> 0.05	> 0.1	0.008	> 0.05	> 0.01
CC(C)C(=Nc1ccc(F)c(Cl)c1)OCc1cccc(Oc2ccc(F)c(F)c2)c1 [Compound 217]	8	0.001	0.015	0.00006	> 0.05	0.0084
CC(C)C(=Nc1ccc2c(c1)OCO2)OCc1cccc(Oc2ccc(Cl)cc2)c1 [Compound 240]	14	0.001	0.04	0.0003	> 0.05	> 0.01
CC(C)C(=Nc1cccc(I)c1)OCc1cccc(Oc2ccc(F)cc2)c1 [Compound 255]	16	0.003	0.075	0.00017	0.0005	> 0.01
CSc1ccc(Oc2cccc(COC(=Nc3ccc(F)c(Cl)c3)C(C)C)c2)cc1 [Compound 256]	> 100	0.03	0.1	0.007	> 0.05	> 0.01
CC(C)C(=Nc1ccc(F)cc1)OCc1cccc(Oc2ccc(Br)cc2)c1 [Compound 259]	15	0.006	0.05	0.0003	> 0.05	> 0.01
CC(C)C(=Nc1cccc([N+](=O)[O-])c1)OCc1cccc(Oc2ccc(Cl)cc2)c1 [Compound 271]	27	> 0.05	0.1	0.0004	> 0.05	> 0.01
CC(C)C(=Nc1ccc(F)c([N+](=O)[O-])c1)OCc1cccc(Oc2ccccc2)c1 [Compound 293]	19	> 0.05	> 0.1	0.0045	> 0.05	> 0.01
CC(C)(F)C(=Nc1ccc(F)c(Cl)c1)OCc1cccc(Oc2ccc(F)cc2F)c1 [Compound 315]	> 100	> 0.05	> 0.1	0.002	> 0.05	> 0.01
